# Measured values reported in publication PMC4788259 (PLoS Neglected Tropical Diseases, 2016).
# Values joined by “and” are separate entries in the source; they are usually repeats but may differ in a detail not shown here. Equal entries are not always repeated. Where two headings read alike, the source gives them in different places.
# What was measured:
# [1] = tested on: Reuber rat hepatoma (RH) cells; assay: alamarBlue viability assay on RH cells; assay type: cell-based; conditions: 120 h, 5 days
# Method: For testing growth inhibitory effects on confluent host cells, cells were seeded in 96-well plates (10,000 cells per well for HFF and 50,000 cells per well for RH cells), in DMEM containing FBS (10%) and antibiotics (100 U penicillin, 100 μg streptomycin and 0.25 μg amphotericin B per mL medium) and were cultured overnight at 37°C, 5% CO2. Thereafter the drugs (10 μM) were added and diluted in a serial 1:2 dilutions down to 20 nM. The concentration range was further adjusted in subsequent setups. For testing growth inhibitory effects on proliferating cells, cells were seeded at 1,000 (HFF) and 5,000 (RH) cells per well, and were allowed to attach for 5 hours at 37°C before addition of the drugs. After 5 days of culture, cell viability was assessed by alamarBlue assay.
# [2] = tested on: E. multilocularis metacestode vesicles; conditions: 12 days, alamarBlue vesicle viability assay
# [3] = design: method as in earlier work; conditions: ref MMV; cited from earlier work
# [4] = design: method as in earlier work; conditions: HMS, Mouse; ref MMV; cited from earlier work
# [5] = tested on: E. multilocularis metacestodes; assay: Transmission electron microscopy of treated metacestodes; assay type: cell-based, Echinococcus multilocularis; conditions: 5 days
# Method: In vitro-cultured metacestodes were cultured for five days in the presence of 1.6, 0.8, 0.4 or 0.1 μM MMV665807, or in the absence of the drug, and were processed for TEM as previously described. In short, primary fixation was carried out in 2% glutaraldehyde in 0.1 M sodium-cacodylate buffer, pH 7.3 for 1 h, and post-fixation in 2% osmium tetroxide in 0.1 M sodium-cacodylate buffer for 2 h. Samples were then pre-stained in saturated uranyl acetate solution in water for 30 min, washed in water, and were stepwise dehydrated in ethanol (30%, 50%, 70%, 90%, and three times 100%). Subsequently specimens were embedded in epoxy resin and polymerization of the resin was carried out at 60°C for 12 h. Ultrathin sections were cut using an ultramicrotome (Reichert and Jung, Vienna, Austria), and were loaded onto formvar-carbon coated nickel grids (Plano GmbH, Marburg, Germany). Specimens were stained with uranyl acetate and lead citrate, and were viewed on a Phillips EM400 transmission electron microscope operating at 80 kV.
# [6] = tested on: E. multilocularis metacestodes; assay: Intraperitoneal treatment of secondary infected mice; assay type: in vivo, BALB/c mice; conditions: 4 weeks, MMV665807 100 mg/kg i.p. three times per week, ABZ 200 mg/kg p.o. 5 days per week
# Method: Animals were kept at a temperature-controlled 12/12 hours light cycle with food and water ad libitum and according to the Swiss Animal protection law. For the in vivo treatment of MMV665807, BALB/c mice (from Charles River, Sulzfeld, Germany), at the age of 8 weeks with an average body weight of 20 g, were i.p. infected with 200 μL metacestodes vesicle suspension. This material was prepared from in vitro-cultured metacestodes (strain H95), which were disintegrated by pressing the parasites through a 1 mL pipette tip. Parasite tissue was centrifuged at 500 x g for 5 min at room temperature before being mixed 1:1 in PBS.
# I.p. drug treatments were initiated 2 weeks post-infection. 32 infected mice were randomly separated into 4 groups with 2 times 4 animals per cage. All animals were exposed to 4 weeks of treatment, with five consecutive days of drug application followed by a 2 day recovery period without treatment. Treatment groups were defined as follows: group 1 (control) received 50 μL of corn oil by gavage on 5 days per week, and an i.p. injection of DMSO in corn oil (4 μL DMSO and 46 μL corn oil) on three days per week; group 2 also received corn oil by gavage 5 days per week, and an i.p. injection of MMV665807 (100 mg/kg in 4 μL DMSO plus 46 μL corn oil) three times per week; group 3 was treated with the standard albendazole treatment (albendazole in corn oil, 200 mg/kg/ day for 5 days each week) and also received an i.p. injection of 4 μl DMSO suspended in 46 μl corn oil three times per week; group 4 received a combined treatment consisting of albendazole in corn oil by gavage (200 mg/kg/day 5 days per week) and an i.p. injection of MMV665807 (100 mg/kg three times per week). After 4 weeks of treatment, mice were euthanized and the parasite mass resected and measured as described above. Statistical analyses were performed as described above.
# adult worms = tested on: adult worms; design: method as in PMID 24416463; conditions: in vitro; read-out: IC50 against adult worms; cited from earlier work
# [7] = tested on: E. multilocularis germinal layer cells; assay: CellTiter-Glo viability assay on germinal layer cell cultures; assay type: cell-based; conditions: Echinococcus multilocularis, 120 h, 5 days, read-out: E.m. GL cells (IC50)
# Method: To assess the effects of MMV665807 on the viability of parasite cells, germinal layer cells were extracted according to Spiliotis et al. After overnight aggregate formation, 15 units of cells were distributed to a black 384 well plate (Nunc, Thermo Scientific, Reinach, Switzerland) in 12.5 μL medium. A concentration series (final concentrations of 3, 1, 0.3, 0.1, 0.03, 0.01 μM) of MMV665807, MMV665794 and mefloquine were prepared in medium and added 1:2 to the cells. For mefloquine, the concentration range was adjusted in a subsequent setup up to 100 μM. As negative control, DMSO was added accordingly. After 5 days of culture at 37°C under humid nitrogen atmosphere, 25 μL CellTiter-Glo (Promega, Dübendorf, Switzerland) including 1% TritonX-100 was added. Plates were incubated for 15 minutes on a shaker at room temperature and complete disruption of all cell aggregates was checked for before measurement of luminescence on a 2300 Enspire multilabel reader (Perkin-Elmer). Mean values and standard deviations were calculated and DMSO values set to 100% viability. The IC50 value was calculated in Microsoft Excel 2010 after logit-log transformation and averages as well as standard deviations of four independent setups were calculated.
# [8] = tested on: E. multilocularis metacestode vesicles; assay: microbe, parasite or virus in culture; conditions: Echinococcus multilocularis, 288 h, read-out: mean viability
# hERG = tested on: hERG; design: method as in earlier work; conditions: ref MMV, cited from earlier work
structure (smiles),measurement,setting,value
O=C(Nc1cccc(C(F)(F)F)c1)c1cc(Cl)ccc1O [MMV665807],IC50,"[1]; confluent cells, read-out: Confluent RH (IC50)",20.5 ± 0.13 µM
same,IC50,"[1]; proliferating cells, read-out: Preconfluent RH (IC50)",4.3 ± 0.14 µM
same,lowest concentration that almost completely abolishes viability of the metacestode tissue,[2],1.6 µM
same,Kinetic Solubility pH=7.4,[3],1.12 µg/mL and 3.55 µM
same,CLint,[4],302.9 mL/min/kg
same,t½,[4],27.2 min
same,ultrastructural alterations (TEM),[5]; 0.1 μM and 0.4 μM,did not show any major alterations
same,ultrastructural alterations (TEM),[5]; 0.8 μM,Clear alterations in the Echinococcus ultrastructure
same,ultrastructural alterations (TEM),[5]; 1.6 μM,clear signs of cell death
same,parasite weight compared to placebo group,[6]; start 2 weeks post-infection,did not result in a reduction
same,adverse effects during treatment,[6],No adverse effects
same,IC50,adult worms,600 to 1300 nM
same,IC50,[7],600 ± 370 nM
same,viability at 0.1 µM,[8],59.7%
same,viability at 0.2 µM,[8],65.5%
same,viability at 0.4 µM,[8],69%
same,viability at 0.8 µM,[8],97.9%
same,viability at 1.6 µM,[8],5.29%
same,viability at 3.1 µM,[8],6.06%
same,viability at 6.3 µM,[8],4.71%
same,viability at 12.5 µM,[8],2.84%
same,viability at 25 µM,[8],2.92%
same,viability at 50 µM,[8],2.9%
same,viability at 100 µM,[8],3.06%
same,hERG % I (1uM),hERG; 1uM,18%
same,hERG % I (11uM),hERG; 11uM,40%
same,hERG activity level,hERG,Weakly active
